From ChEMBL document CHEMBL1140588, “Design and synthesis of potent amido- and benzyl-substituted cis-3-amino-4-(2-cyanopyrrolidide)pyrrolidinyl DPP-IV inhibitors” (Bioorg Med Chem Lett, 2007) come the findings set out here.

Data set [1] concerns the target Dipeptidyl peptidase 8 (Homo sapiens, UniProt Q6V1X1). Nature of the data set: Inhibition of human DPP8.
Data set [2] has as its target hERG (KCNH2) (Homo sapiens, UniProt Q12809). Nature of the data set: Displacement of [3H]dofetilide from hERG at 10 uM. As to conditions: probe [3H]dofetilide, read-out: Activity. (In general: Displacement assays read how much labelled ligand stays bound in the presence of the test substance.)
Data set [3] concerns Rattus norvegicus. The data set is described as follows: Inhibition of DPP4 in Sprague-Dawley rat at 5 mg/kg, po between 4 to 6 hrs. Type of data set: functional. Further details: scale not given: the % may be the effect or the level left.
Data set [4] can be described thus: Bioavailability in Sprague-Dawley rat at 5 mg/kg, po. Type of data set: ADME, organism-based. The note with it: in vivo.
Data set [5] has as its target Voltage-gated inwardly rectifying potassium channel KCNH2 (Homo sapiens, UniProt Q12809). Nature of the data set: Inhibition of hERG by patch clamp assay. Type of data set: toxicity.
Data set [6] in a line: Half life in Sprague-Dawley rat at 5 mg/kg, po. Further details: dose 5 mg/kg, route oral. Type of data set: ADME, organism-based. The note with it: in vivo.
Data set [7] is filed under the species Rattus norvegicus. The data set is described as follows: Inhibition of DPP4 in Sprague-Dawley rat. Format: functional.
The nature of data set [8]: Cmax in Sprague-Dawley rat at 5 mg/kg, po. Type of data set: ADME, organism-based. Further details: dose 5 mg/kg, route oral. The note with it: in vivo.
The test system of data set [9] is Rattus norvegicus. The data set is described as follows: AUC(0 to infinity) in Sprague-Dawley rat at 5 mg/kg, po. Format: ADME, organism-based, Plasma. Further details: time infinity, dose 5 mg/kg, route oral. The note with it: in vivo.
Data set [10] is described as follows: Plasma protein binding in Sprague-Dawley rat at 5 mg/kg, po. The note with it: read-out: PB (converted). Format: ADME, organism-based. Further details: dose 5 mg/kg, route oral.

Dipeptidyl peptidase 8, sequence (Q6V1X1 whole entry): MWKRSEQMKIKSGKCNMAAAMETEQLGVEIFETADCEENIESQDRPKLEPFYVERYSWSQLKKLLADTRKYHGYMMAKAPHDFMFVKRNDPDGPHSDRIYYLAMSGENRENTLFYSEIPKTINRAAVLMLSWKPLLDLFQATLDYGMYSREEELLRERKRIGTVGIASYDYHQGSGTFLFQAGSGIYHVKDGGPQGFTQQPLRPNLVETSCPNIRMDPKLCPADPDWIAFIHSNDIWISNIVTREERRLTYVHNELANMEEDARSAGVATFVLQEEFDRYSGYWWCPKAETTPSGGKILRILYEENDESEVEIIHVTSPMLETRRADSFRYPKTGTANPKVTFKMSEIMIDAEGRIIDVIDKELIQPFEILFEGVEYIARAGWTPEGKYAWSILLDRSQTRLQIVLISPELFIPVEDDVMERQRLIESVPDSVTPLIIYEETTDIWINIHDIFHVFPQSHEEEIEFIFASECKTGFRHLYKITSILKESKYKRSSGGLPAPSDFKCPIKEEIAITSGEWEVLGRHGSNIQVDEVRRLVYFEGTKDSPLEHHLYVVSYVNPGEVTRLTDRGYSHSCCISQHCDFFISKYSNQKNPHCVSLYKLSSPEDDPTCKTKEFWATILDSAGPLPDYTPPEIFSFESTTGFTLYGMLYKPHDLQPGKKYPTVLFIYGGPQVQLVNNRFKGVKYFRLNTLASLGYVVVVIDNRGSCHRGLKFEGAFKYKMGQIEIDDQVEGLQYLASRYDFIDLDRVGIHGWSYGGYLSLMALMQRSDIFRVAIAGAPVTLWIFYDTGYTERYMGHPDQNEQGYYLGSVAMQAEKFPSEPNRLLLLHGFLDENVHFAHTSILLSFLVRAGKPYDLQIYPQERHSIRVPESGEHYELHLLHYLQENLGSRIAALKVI
hERG (KCNH2), sequence (Q12809 whole entry): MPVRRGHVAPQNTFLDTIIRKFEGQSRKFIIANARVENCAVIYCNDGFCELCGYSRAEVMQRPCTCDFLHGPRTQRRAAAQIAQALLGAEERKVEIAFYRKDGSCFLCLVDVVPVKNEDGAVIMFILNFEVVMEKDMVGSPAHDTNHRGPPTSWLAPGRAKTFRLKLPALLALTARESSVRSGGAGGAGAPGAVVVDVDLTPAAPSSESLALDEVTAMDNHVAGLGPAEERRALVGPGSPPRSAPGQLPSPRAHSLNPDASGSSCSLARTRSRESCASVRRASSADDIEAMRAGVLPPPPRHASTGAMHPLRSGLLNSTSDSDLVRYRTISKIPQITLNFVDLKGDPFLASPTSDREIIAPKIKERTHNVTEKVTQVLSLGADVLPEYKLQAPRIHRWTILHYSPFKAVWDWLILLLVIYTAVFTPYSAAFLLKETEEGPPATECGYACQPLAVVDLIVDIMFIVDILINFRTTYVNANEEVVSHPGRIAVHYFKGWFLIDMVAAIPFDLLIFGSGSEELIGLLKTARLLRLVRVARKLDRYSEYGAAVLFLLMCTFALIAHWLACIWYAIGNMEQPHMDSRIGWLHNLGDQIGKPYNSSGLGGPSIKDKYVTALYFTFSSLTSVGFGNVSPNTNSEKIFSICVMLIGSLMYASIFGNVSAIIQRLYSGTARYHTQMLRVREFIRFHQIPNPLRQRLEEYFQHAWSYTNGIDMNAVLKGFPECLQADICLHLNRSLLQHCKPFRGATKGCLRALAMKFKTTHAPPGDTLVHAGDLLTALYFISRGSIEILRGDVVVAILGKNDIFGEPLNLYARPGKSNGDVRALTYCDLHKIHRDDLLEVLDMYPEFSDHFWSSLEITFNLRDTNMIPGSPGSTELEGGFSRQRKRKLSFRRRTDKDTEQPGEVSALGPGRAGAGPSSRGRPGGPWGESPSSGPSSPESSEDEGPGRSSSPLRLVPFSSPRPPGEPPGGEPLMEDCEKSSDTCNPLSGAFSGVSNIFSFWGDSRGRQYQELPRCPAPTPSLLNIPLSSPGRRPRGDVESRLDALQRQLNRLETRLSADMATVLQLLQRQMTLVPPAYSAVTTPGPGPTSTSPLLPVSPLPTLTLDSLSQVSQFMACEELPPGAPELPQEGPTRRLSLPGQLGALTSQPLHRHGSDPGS
Voltage-gated inwardly rectifying potassium channel KCNH2, sequence (Q12809 whole entry): as above

As usually defined, the IC50 is the midpoint of a concentration-inhibition curve. Regarding `N#Cc1ccc(CN2C[C@H](N)[C@H](C(=O)N3CCC[C@H]3C#N)C2)cc1`, the IC50 in [1] worked out at 0.56 µM. The inhibition at 10 µM in data set [2] came out at 47%.

Take `Cn1nccc1-c1ccc(CN2C[C@H](N)[C@H](C(=O)N3CCC[C@H]3C#N)C2)cc1`: it took 0.148 µM to reach half-maximal inhibition in [1] (IC50). In data set [2], the inhibition at 10 µM was 36%.

The bioavailability is the share of a dose that reaches the circulation, judged against a reference dose that is usually intravenous. In data set [1], `Cc1ncn(-c2ccc(CN3C[C@H](N)[C@H](C(=O)N4CCC[C@H]4C#N)C3)cc2)n1` displayed an IC50 of 0.858 µM. In addition, in data set [3], the Activity amounted to 51%. Further, the inhibition at 10 µM in [2] stood at 4%. In [4], this molecule yielded a bioavailability of 36%.

Molecule `N#C[C@@H]1CCCN1C(=O)[C@@H]1CN(Cc2cnc3ccccc3c2)C[C@@H]1N` returned an IC50 in data set [1] of 3.29 µM. Also, the inhibition at 10 µM in data set [2] turned out to be 36%.

Consider `N[C@H]1CN(C(=O)c2cc3ccccc3s2)C[C@H]1C(=O)N1CCCC1`, for which the inhibition at 10 µM in [2] came to 5%.

Take `N[C@H]1CN(C(=O)c2ccc3ccccc3c2)C[C@H]1C(=O)N1CCCC1`: in data set [2], the inhibition at 10 µM amounted to 4%.

As for `N#C[C@@H]1CCCN1C(=O)[C@@H]1CN(Cc2ccc(-c3cc[nH]n3)cc2)C[C@@H]1N`, the concentration for half-maximal inhibition (IC50) in data set [1] came out at 0.326 µM. Also, in [2], the inhibition at 10 µM stood at 65%.

Consider `Cn1cc(-c2ccc(CN3C[C@H](N)[C@H](C(=O)N4CCC[C@H]4C#N)C3)cc2)cn1`, for which the IC50 in data set [1] amounted to 0.363 µM. The inhibition at 10 µM in data set [2] stood at 71%.

Turning to `N#C[C@@H]1CCCN1C(=O)[C@@H]1CN(Cc2ccc(-c3csnn3)cc2)C[C@@H]1N`, the IC50 in data set [1] came out at 0.19 µM. The inhibition at 10 µM in data set [2] came to 91%.

In the case of `N#Cc1ccc2c(c1)CCC2N1C[C@H](N)[C@H](C(=O)N2CCC[C@H]2C#N)C1` (some centres undefined), the inhibition at 10 µM in [2] is 88%.

Regarding `N[C@H]1CN(C(=O)c2ccc(-n3cnnn3)cc2)C[C@H]1C(=O)N1CCCC1`, in data set [2], the inhibition at 10 µM was 15%.

On to `CC(c1ccc(C#N)cc1)N1C[C@H](N)[C@H](C(=O)N2CCC[C@H]2C#N)C1` (some centres undefined), for which the figures for the IC50 in data set [1] and in data set [5] were 1.04 µM and 10 µM, respectively. The inhibition at 10 µM in data set [2] turned out to be 18%.

As for `N[C@H]1CN(C(=O)c2ccc3ncccc3c2)C[C@H]1C(=O)N1CCCC1`, the inhibition at 10 µM in data set [2] is 19%.

On to `N[C@H]1CN(C(=O)c2cc3ccccc3cn2)C[C@H]1C(=O)N1CCCC1`, for which, in [2], the inhibition at 10 µM is 0.5%.

Consider `N[C@H]1CN(C(=O)c2cnc3ccccc3c2)C[C@H]1C(=O)N1CCCC1`, for which the inhibition at 10 µM in [2] is 9%.

For the molecule `N[C@H]1CN(Cc2ccc(-n3cnnn3)cc2)C[C@H]1C(=O)N1CCCC1`, the inhibition at 10 µM in data set [2] amounted to 43%.

Consider `N#Cc1cc(CN2C[C@H](N)[C@H](C(=O)N3CCCC3)C2)ccc1F`, for which the inhibition at 10 µM in data set [2] stood at 9%.

With `N[C@H]1CN(Cc2ccc(-c3csnn3)cc2)C[C@H]1C(=O)N1CCCC1`, the inhibition at 10 µM in data set [2] came to 84%.

As to `Cc1cc(-n2cncn2)ccc1CN1C[C@H](N)[C@H](C(=O)N2CCC[C@H]2C#N)C1`, the inhibition at 10 µM in [2] turned out to be 62%.

Take `N[C@H]1CN(Cc2cnc3ccccc3c2)C[C@H]1C(=O)N1CCCC1`: the inhibition at 10 µM in data set [2] is 32%.

Take `N#C[C@@H]1CCCN1C(=O)[C@@H]1CN(Cc2ccc(-n3cncn3)cc2)C[C@@H]1N`: the IC50 in data set [1] amounted to 0.461 µM; in data set [5], 1.8 µM. Further, the inhibition at 10 µM in data set [2] stood at 40%.

As to `CC(c1ccc([N+](=O)[O-])cc1)N1C[C@H](N)[C@H](C(=O)N2CCCC2)C1` (some centres undefined), in data set [2], the inhibition at 10 µM came out at 13%.

Take `Cc1nnc(-c2ccc(CN3C[C@H](N)[C@H](C(=O)N4CCC[C@H]4C#N)C3)cc2)o1`: the IC50 in data set [1] was found to be 0.704 µM; in data set [5] it was 165 µM. The inhibition at 10 µM in [2] is 4%.

Turning to `Cc1cc(CN2C[C@H](N)[C@H](C(=O)N3CCC[C@H]3C#N)C2)cc(C)c1C#N`, in data set [5], the IC50 was found to be 28.9 µM. Further, the inhibition at 10 µM in data set [2] worked out at 21%.

In data set [1], `N#C[C@@H]1CCCN1C(=O)[C@@H]1CN(Cc2ccc(-n3nccn3)cc2)C[C@@H]1N` returned an IC50 of 0.247 µM. In data set [2], the inhibition at 10 µM stood at 49%.

For orientation: half-life means how long it takes for the measured level to halve. By Inhibition is commonly meant the percentage by which the read-out fell short of the control. As a reminder, the Cmax is the highest concentration seen after dosing. Broadly, the AUC is the area under the concentration-time curve, a measure of exposure. Turning to `CC(c1ccc(-n2cncn2)cc1)N1C[C@H](N)[C@H](C(=O)N2CCC[C@H]2C#N)C1` (some centres undefined), the half-life in data set [6] is 4.3 h. The molecule further had an Inhibition in [7] of 86%. Moreover, the peak level in [8] (Cmax) was 1.4 µg/mL. In data set [9], this molecule came in with an AUC of 7.703 µg·h/mL. Besides, the fraction unbound in data set [10] was 0.77. In addition, in data set [2], the inhibition at 10 µM was 7%. Also, the bioavailability in [4] stood at 30.6%.

With `N#C[C@@H]1CCCN1C(=O)[C@@H]1CN(C2CCOc3ccccc32)C[C@@H]1N` (some centres undefined), the inhibition at 10 µM in data set [2] is 7%.

On to `N[C@H]1CN(C(=O)c2ccc(-n3cncn3)cc2)C[C@H]1C(=O)N1CCCC1`, for which the inhibition at 10 µM in [2] is 14%.

With `N[C@H]1CN(C(=O)c2cc3cc(Cl)ccc3o2)C[C@H]1C(=O)N1CCCC1`, the inhibition at 10 µM in data set [2] was found to be 14%.

On to `Cc1cc(CN2C[C@H](N)[C@H](C(=O)N3CCC[C@H]3C#N)C2)ccc1-n1cncn1`, for which the inhibition at 10 µM in data set [2] is 17%.

`N[C@H]1CN(C(=O)c2cnc3ccccc3n2)C[C@H]1C(=O)N1CCCC1`: the IC50 in [5] is over 300 µM. For the same molecule, in data set [2], the inhibition at 10 µM is 0.241%.

On to `N[C@H]1CN(Cc2ccc(F)c(F)c2)C[C@H]1C(=O)N1CCCC1`, for which the inhibition at 10 µM in data set [2] was 19%.

Regarding `CCc1cc(CN2C[C@H](N)[C@H](C(=O)N3CCC[C@H]3C#N)C2)cc(CC)c1C#N`, the inhibition at 10 µM in data set [2] was 3%.

For the molecule `N#Cc1cc(CN2C[C@H](N)[C@H](C(=O)N3CCC[C@H]3C#N)C2)ccc1F`, it took 0.922 µM to reach half-maximal inhibition in [1] (IC50). Further, the inhibition at 10 µM in data set [2] is 10%.
